Tests used:
[1] = tested on: pooled primary human hepatocyte suspensions; assay: Bayesian (MCMC, invitroTKstats) analysis of hepatic clearance data; details: for Clint.1.Med: Level-4 Bayesian estimate, posterior median, Clint.1 series (Clint.10 all NA)
Source text: Markov Chain Monte Carlo was employed in a Bayesian analysis to estimate uncertainty of the hepatic clearance point measures as previously described, but with some modifications [10]. Briefly, after organizing PFAS-level data into a single file, the relationship between the relevant measurement process parameters was described in a graphic model in JAGS language [13] interfaced through R. For hepatic clearance data, the model describes the PFAS-specific mass spectrometric response factor between analyte peak ratio (to internal standard) and chemical concentration. […] The assumed prior for whether the chemical degraded abiotically in vitro followed a Bernoulli distribution with a 5% chance of abiotic degradation. Separate biotic and abiotic components for chemical elimination were estimated, each with a slope following an assumed uniform prior distribution bounded between the zero and the -log (limit of quantitation/Ctest). In scenarios where an external calibration without internal standard was used, the response factor was calculated using the analyte peak alone, introducing additional uncertainty due to the inability to normalize for recovery issues. The model was analyzed jointly by JAGS using five Markov chains. Convergence was identified by requiring the five chains to be consistent, as indicated by the potential scale reduction factor [14] being less than 1.1. The analysis was performed using EPA-developed R package invitroTKstats, available upon request.

[2] = tested on: pooled primary human hepatocyte suspensions; assay: Hepatic clearance assay (substrate depletion, LC-MS); details: in µL/min/10^6 cells; for Unadj Clint: unadjusted hepatic intrinsic clearance, Table S4
Protocol: The rate of hepatic clearance was determined as previously described for a set of PFAS [11]. Analysis was conducted across two laboratories at the Division of Translational Toxicology (DTT) at the National Institute of Environmental Health Sciences (NIEHS) and the Center for Computational Toxicology and Exposure at the USEPA. The PFAS analyzed in each lab can be found in the Supplementary Materials.
The hepatic clearance assay was performed at both the DTT and EPA laboratories as described below. The pooled human hepatocyte suspensions used in this work were purchased commercially and meet the ethical and scientific standards described in the Human Ethics Rule (40 CFR 26). The suspensions were prepared from hepatocytes obtained from de-identified donors by a commercial vendor.
PFAS stock solutions prepared in DMSO were added to prewarmed William’s E medium to make a 2X working stock solution (2 µM). […] The working stock solutions were then transferred to a 96-well polypropylene plate and placed in an incubator at 37 °C with 5% carbon dioxide prior to adding cells. Cryopreserved pooled primary human hepatocyte suspensions (50-donor pool, mixed gender; BioIVT; Westbury, NY, USA) were thawed and transferred to vials containing hepatocyte thawing medium. After centrifuging for 5–10 min at 100× g, thawing medium was removed, being careful not to disturb the cell pellet. The primary human hepatocytes were then resuspended in pre-warmed complete Williams E medium to achieve a cell density of ~1.0 × 10^6 viable cells/mL as determined by Trypan Blue exclusion. Cells were then added to the 96-well incubation plates containing PFAS to achieve a final density of ~0.5 × 10^6 viable cells/mL and a 1 μM assay concentration (Ctest), then placed in incubator on a shaker at 300 rpm. Triplicate samples were removed from the incubator at time points ranging from 0 to 240 min and quenched with a total crash in 2–3 volumes of ice-cold acetonitrile. Samples were spun at 4000× g for 20 min, and supernatants were transferred to new tubes and stored at <−70 °C until analysis. Media-only (no cell) and/or heat-inactivated hepatocytes were included as negative controls for each chemical to evaluate and estimate chemical loss due to nonmetabolic processes (e.g., hydrolysis). Phenacetin was included in all runs as an assay reference compound; EPA also included propranolol as an additional reference compound.
Assay samples were diluted in mobile phase and analyzed using a Thermo Vanquish UPLC system with a Thermo Hypersil Gold aQ C18 column (100 × 2.1 mm, 1.9 […], Thermo Fisher Scientific Inc.) coupled to a Q Exactive Plus mass spectrometer. Gradient elution was used in the chromatographic separations using water with 20 mM ammonium acetate (mobile phase A) and methanol (mobile phase B), with the following gradient program: 0.5–7 min, 30%–90% B; 7–8 min, 90% B; 8–9 min, 90%–30% B; and 9–10 min, 30% B. The first minute of each injection was diverted to waste to avoid introduction of excessive salts from incubation medium. Analysis was detected in negative ion mode. Samples were quantified against an external, matrix-matched calibration curve. Additional methodologic information is available in Table S2.
To perform SPE, a positive-pressure manifold was employed along with Oasis WAX µElution plates and Oasis HLB 30 mg plates (Waters, Milford, MA, USA) for PFAS and positive-control extraction, respectively. […] The sorbent was then washed with 1% formic acid and water. Samples were eluted in 2% ammonia in methanol for analysis. Similarly, HLB plates were conditioned with methanol and water before sample was loaded onto the sorbent. The wells were then washed with 5% methanol in water and water before elution in methanol. For samples not undergoing SPE, the supernatant of the crashed assay sample was diluted in mobile phase prior to analysis. The first 1.5 min of the run was diverted to waste to prevent salt contamination.

[3] = IVIVE: steady-state concentration (Css), generic HTTK model; design: species or system human
Protocol: IVIVE was performed as previously described to calculate human steady-state concentrations (Css). Briefly, experimental plasma protein binding data presented elsewhere were transformed to fraction unbound in blood using blood-to-plasma partitioning values. Experimental Clint values generated here are used in conjunction with relevant liver scalars to scale up to estimate whole liver clearance. […] Once Css values were established, these were used with the PFAS-specific in vitro POD data to calculate the administered equivalent doses (AEDs) using reverse dosimetry. […] The fifth-percentile AC50 value was used to define the in vitro POD. All relevant inputs, scalars, and calculations are provided in Supplementary Information, as indicated in the results.

[4] = tested on: plasma protein; details: fraction unbound in plasma, input for IVIVE calculations; cited from earlier work
[5] = pooled primary human hepatocyte suspensions
[6] = Assuming 1 mg/kg/day dose rate, BW 70 kg

SMILES	Clint.1.Med [1]	further results
O=S(=O)(OCC(F)(F)F)C(F)(F)C(F)(F)C(F)(F)C(F)(F)F	0	–
CNS(=O)(=O)C(F)(F)C(F)(F)C(F)(F)C(F)(F)C(F)(F)C(F)(F)C(F)(F)C(F)(F)F	48.7	–
C[N+](C)(C)CCCNS(=O)(=O)C(F)(F)C(F)(F)C(F)(F)C(F)(F)C(F)(F)C(F)(F)C(F)(F)C(F)(F)F	0	–
O=C(O)C=C(C(F)(F)F)C(F)(F)F [3,3-Bis(trifluoromethyl)-2-propenoic acid]	0	Unadj Clint [2, 5]: 1.82
O=C(O)CCC(F)(F)C(F)(F)C(F)(F)F [3:3 Fluorotelomer carboxylic acid]	0	Unadj Clint [2, 5]: 0.00
O=C(O)C(F)(F)C(F)(F)C(F)F [4H-Perfluorobutanoic_acid]	0	–
N.O=C(O)C(F)(F)C(F)(F)C(F)(F)C(F)(F)C(F)(F)C(F)(F)C(F)(F)F [Ammonium_perfluorooctanoate]	10.8	–
CNS(=O)(=O)C(F)(F)C(F)(F)C(F)(F)C(F)(F)C(F)(F)C(F)(F)C(F)(F)C(F)(F)F [N-Methylperfluorooctanesulfonamide]	–	Unadj Clint [2, 5]: 33.23; metabolic clearance call, experimental and Bayesian analyses in agreement ([1]; both analyses agreed): metabolized
O=C(Cl)C(F)(F)C(F)(F)C(F)(F)C(F)(F)C(F)(F)C(F)(F)C(F)(F)F [Pentadecafluorooctanoyl chloride]	0	Unadj Clint [2, 5]: 0.00
O=C(O)C(F)(F)C(F)(F)C(F)(F)OC(F)(F)F [Perfluoro(4-methoxybutanoic)_acid]	0	–
O=S(=O)(Cl)C(F)(F)C(F)(F)C(F)(F)C(F)(F)C(F)(F)C(F)(F)C(F)(F)C(F)(F)F [Perfluoro-1-octanesulfonyl_chloride]	0	–
O=C(O)C(F)(F)C(F)(F)C(F)(F)OC(F)(C(F)(F)F)C(F)(F)F [Perfluoro-4-isopropoxybutanoic_acid]	0	–
O=S(=O)(O)C(F)(F)C(F)(F)C(F)(F)C(F)(F)C(F)(F)C(F)(F)C(F)(F)F [Perfluoroheptanesulfonic_acid]	0	–
O=S(=O)(O)C(F)(F)C(F)(F)C(F)(F)C(F)(F)C(F)(F)C(F)(F)F [Perfluorohexanesulfonic_acid]	0	–
O=C(O)C(F)(F)C(F)(F)C(F)(F)C(F)(F)C(F)(F)C(F)(F)C(F)(F)C(F)(F)F [Perfluorononanoic_acid]	10.4	–
O=C(O)C(F)(F)C(F)(F)C(F)(F)C(F)(F)C(F)(F)C(F)(F)C(F)(F)F [Perfluorooctanoic_acid]	0	–
O=C(O)C(F)(F)C(F)(F)C(F)(F)C(F)(F)F [Perfluoropentanoic_acid]	0	–
O=C(O)C(F)(F)C(F)(F)F [Perfluoropropanoic_acid]	0	–
O=C(O)C(F)(F)C(F)(F)C(F)(F)C(F)(F)C(F)(F)C(F)(F)C(F)(F)C(F)(F)C(F)(F)C(F)(F)C(F)(F)C(F)(F)C(F)(F)F [Perfluorotetradecanoic acid (PFTeDA)]	0	–
O=C(O)C(F)(F)C(F)(F)C(F)(F)C(F)(F)C(F)(F)C(F)(F)C(F)(F)C(F)(F)C(F)(F)C(F)(F)C(F)(F)C(F)(F)F [Perfluorotridecanoic_acid]	0	–
O=S(=O)([O-])C(F)(F)C(F)(F)C(F)(F)C(F)(F)C(F)(F)C(F)(F)C(F)(F)C(F)(F)F.[K+] [Potassium_perfluorooctanesulfonate]	0	–
O=S(=O)([O-])C(F)(F)C(F)(F)C(F)(F)C(F)(F)C(F)(F)C(F)(F)C(F)(F)C(F)(F)C(F)(F)C(F)(F)F.[Na+] [Sodium perfluorodecanesulfonate (NaPFDS)]	–	CLint for HTTK ([2]; CLint value carried into HTTK/IVIVE): 0; in vitro CLint exp assay [2, 5]: 0.00; Css (mg/L) [3, 6]: 4.57 mg/L; Css (uM) [3, 6]: 7.62 µM; CLhep ([3]; QL 1500000 uL/min): 0.000 L/h; Fub ([3]; fub=fup/(B:P), Fub set to 1 if needed): 0.096; CLint ([3]; scaled to whole liver: HPGL 110 mill cells/g, Vl 1596 g): 0 µL/min; Mean fu [4]: 0.0528
O=S(=O)([O-])C(F)(F)C(F)(F)C(F)(F)C(F)(F)C(F)(F)C(F)(F)C(F)(F)C(F)(F)C(F)(F)C(F)(F)F.[Na+] [Sodium_perfluorodecanesulfonate]	4.87	–

From PMC11435625, “In Vitro Hepatic Clearance Evaluations of Per- and Polyfluoroalkyl Substances (PFAS) across Multiple Structural Categories” (Toxics, 2024)
